Measured values from article PMC11540889, “In Vitro Cytotoxicity of Fluorinated Quaternary Ammonium Salts in Colorectal Cancer Cells and In Silico Pharmacology” (Advances in Pharmacological and Pharmaceutical Sciences, 2024).

What was measured:
[1] = system: SW620 (Dukes' Type C, Grade IV invasive colorectal adenocarcinoma); experiment: MTT cytotoxicity, SW620 cells; details: for CC50: Homo sapiens, 48 h; for Index of selectivity MCRT / SW620: IS = CC50 MCRT ÷ CC50 SW620; for Index of selectivity PBMC / SW620: IS = CC50 PBMC ÷ CC50 SW620
Description: (§1) The compounds were solubilized in dimethyl sulfoxide (DMSO, Fischer Chemical, NJ, USA) at 50,000 μg/mL and stored at −20°C until use. From the stock solution, six serial 1:2 double dilutions of each compound were prepared to start with concentrations of 100, 50, 25, 12.5, 6.25, and 3.125 μg/mL, respectively. 5-FU, one of the conventional drugs to treat CRC [34], was used as an antitumor compound control at concentrations ranging between 800 and 0.625 μM.
(§2) SW948 (Dukes' Type C, Grade III, premetastatic colorectal adenocarcinoma—CCL-237), SW48 (Dukes' Type C, Grade IV, noninvasive colorectal adenocarcinoma—CCL231), and SW620 (Dukes' Type C, Grade IV invasive colorectal adenocarcinoma—CCL227) (American Type Culture Collection Manassas, VA, USA) were maintained in standard conditions at 37°C, without a CO2 atmosphere. PBMCs and MCRT were used as nontumoral control cells. PBMCs were obtained by healthy donors, separated using Histopaque-1077 (Sigma-Aldrich) and cultured in RPMI-1640 medium (Sigma-Aldrich) supplemented with 10% SFB and 1% penicillin/streptomycin [46]. In turn, MCRT were obtained from healthy BALB/c mice; for this, mice were euthanized with CO2 after previous sedation, the colorectal tissue removed, cleaned up, and cut into 2 × 2 mm pieces, suspended in supplemented DMEM, and used immediately after collection. […] Moreover, the inclusion of PBMC also served to assess the systemic toxicity of FQAS.
(§3) The cytotoxic activity of synthesized FQASs and QASs was studied by measuring cell viability/mortality, determined with the MTT (3-(4,5-dimethylthiazol-2-yl)-2,5-diphenyl tetrazole bromide) method (VWR Chemicals and Reagents Avantor), upon exposure of each cell line to six serial dilutions of the different compounds independently. Unexposed cells were included as viability controls, and cells exposed to 5-FU were included as cytotoxicity controls. Briefly, cells were adjusted to 200,000 cells/mL in the corresponding supplemented culture medium, and 100 μL (20,000 cells/well) were dispensed into each 96-well cell culture plate (Nunc, Thermo Fisher Scientific). Twelve hours after seeding the monolayer, 100 μL dilution of each compound was added to each well; the plates containing CRC were incubated at 37°C in the absence of CO2, while plates with PBMCs and MCRT were incubated at 37°C and 5% CO2 atmosphere. For MCRT, each piece was placed into each well of a 96-well plate and exposed to each dilution of the FQASs and QASs. After 48 h of incubation, 30 μL/well of MTT (5 mg/mL) was added, and plates were left at 37°C for 3 h, protected from light. After this time, 100 μL/well of DMSO was added to solubilize the formazan crystals formed. Plates were read at 570 nm on a Varioskan plate reader (Thermo Fisher), and nonspecific absorbance was corrected by subtracting the optical densities (OD) of the blank solutions corresponding to the supplemented culture media (RPMI 1640, DMEM, or L-15 media) and 0.5% DMSO. Each concentration of the FQASs, QASs, and controls was evaluated in duplicate in three independent experiments.
(§4) The percentages of viability (equation (1)) and mortality (equation (2)) were calculated with the net OD:(1) % viability=OD treated cell÷nontreated cells×100, (2) % mortality=100−% viability.
(§5) The %mortality data for each compound concentration was recorded, and the median cytotoxic concentration (CC50), corresponding to the concentration at which 50% of cell death occurs, was calculated using GraphPad Prism 8 software (GraphPad, Software, Inc., La Jolla, CA, USA). […] Lastly, the index of selectivity (IS) was calculated by dividing the CC50 value obtained for control cells (MCRT and PBMCs) by the CC50 value obtained for each CRC cell phenotype using the formula: IS = CC50 (MCRT or PBMC) ÷ CC50 (SW948, SW48 or SW620).

[2] = system: SW948 (Dukes' Type C, Grade III, premetastatic colorectal adenocarcinoma); experiment: MTT cytotoxicity, SW948 cells; details: for CC50: Homo sapiens, SW948, 48 h, SW948 cells, MTT, 48 h, mean ± SD; for Index of selectivity MCRT / SW948: IS = CC50 MCRT ÷ CC50 SW948; for Index of selectivity PBMC / SW948: IS = CC50 PBMC ÷ CC50 SW948
Description: as §1, §2, §3, §4, §5

[3] = MTT cytotoxicity, peripheral blood mononuclear cells; type: cell-based; details: human, peripheral blood mononuclear cells (PBMC); PBMC, nontumoral control, MTT, 48 h, mean ± SD
Description: as §1, §2, §3, §4, §5

[4] = Ex vivo MTT cytotoxicity, healthy murine colorectal tissue; type: cell-based, BALB/c mice; details: BALB/c, mouse, healthy murine colorectal tissue (MCRT) pieces, ex vivo, nontumoral control, MTT, 48 h, mean ± SD
Description: as §1, §2, §3, §4, §5

[5] = system: SW48 (Dukes' Type C, Grade IV, noninvasive colorectal adenocarcinoma); experiment: MTT cytotoxicity, SW48 cells; details: for CC50: SW48 cells, MTT, 48 h, mean ± SD; for Index of selectivity MCRT / SW48: IS = CC50 MCRT ÷ CC50 SW48; for Index of selectivity PBMC / SW48: IS = CC50 PBMC ÷ CC50 SW48
Description: as §1, §2, §3, §4, §5

[6] = system: CRC cell lines SW48, SW620, and SW948; experiment: MTT cytotoxicity across CRC cell lines (pooled statements, selectivity between lines); type: cell-based; details: for Index of selectivity SW48 vs. SW620: IS = CC50 SW48 ÷ CC50 SW620; for Index of selectivity SW948 vs. SW48: IS = CC50 SW948 ÷ CC50 SW48; for Index of selectivity SW948 vs. SW620: IS = CC50 SW948 ÷ CC50 SW620
Description: as §1, §2, §3, §4
The %mortality data for each compound concentration was recorded, and the median cytotoxic concentration (CC50), corresponding to the concentration at which 50% of cell death occurs, was calculated using GraphPad Prism 8 software (GraphPad, Software, Inc., La Jolla, CA, USA). […]

[7] = system: peripheral blood mononuclear cells (PBMC); experiment: MTT cytotoxicity, peripheral blood mononuclear cells; type: cell-based; details: PBMCs
Description: as §1, §2, §3, §4, §5

[8] = system: healthy murine colorectal tissue (MCRT); experiment: Ex vivo MTT cytotoxicity, healthy murine colorectal tissue; type: cell-based, BALB/c mice
Description: as §1, §2, §3, §4, §5

| Compound | CC50 [1] | Index of selectivity MCRT / SW620 [1] | Index of selectivity PBMC / SW620 [1] | CC50 [2] | Index of selectivity MCRT / SW948 [2] | Index of selectivity PBMC / SW948 [2] | CC50 at 48 h [3] | CC50 at 48 h [4] | CC50 ([5]; Homo sapiens, SW48, 48 h) | Index of selectivity MCRT / SW48 [5] | Index of selectivity PBMC / SW48 [5] | Index of selectivity SW48 vs. SW620 [6] | Index of selectivity SW948 vs. SW48 [6] | Index of selectivity SW948 vs. SW620 [6] | cytotoxicity level (high/moderate/low) [1] | cytotoxicity level (high/moderate/low) [2] | cytotoxicity level (high/moderate/low) [5] | CC50 [5] | cytotoxicity in words [7] | cytotoxicity in words [8] |
| --- | --- | --- | --- | --- | --- | --- | --- | --- | --- | --- | --- | --- | --- | --- | --- | --- | --- | --- | --- | --- |
| C[N+](C)(CI)CCCC=C(c1cccc(C(F)(F)F)c1)c1cccc(C(F)(F)F)c1 [Compound 6] | 38.8 ± 2.1 µM | 3.3 | 1.2 | 45.6 ± 3.6 µM | 2.8 | 1.0 | 44.8 ± 6.4 µM | 129 ± 11.3 µM | 55.5 ± 6.4 µM | 2.3 | 0.80 | 1.4 |  |  |  |  |  |  |  |  |
| C[N+](C)(C)CCCC=C(c1cccc(C(F)(F)F)c1)c1cccc(C(F)(F)F)c1 [Compound 7] | 31.1 ± 0.2 µM | 4.0 | 1.5 | 20 ± 0.8 µM | 6.2 | 2.3 | 46.3 ± 7.5 µM | 123 ± 9.2 µM | 81.4 ± 9.4 µM | 1.5 | 0.57 | 2.6 | 0.2 |  |  |  |  |  |  |  |
| C[N+](C)(CCl)CCCC=C(c1ccc(C(F)(F)F)cc1)c1ccc(C(F)(F)F)cc1 [Compound 8] | 19.2 ± 3.5 µM | 5.3 | 2.2 | 20.4 ± 6.2 µM | 5.0 | 2.1 | 42.3 ± 9.3 µM | 102 ± 5 µM | 50.8 ± 4 µM | 2.0 | 0.8 | 2.6 | 0.4 | 1.1 |  |  |  |  |  |  |
| C[N+](C)(CI)CCCC=C(c1ccc(C(F)(F)F)cc1)c1ccc(C(F)(F)F)cc1 [Compound 9] | 32.2 ± 1 µM | 6.4 | 1.0 | 20 ± 4.7 µM | 10.3 | 1.5 | 30.6 ± 2.1 µM | 206 ± 19.4 µM | 40.2 ± 6 µM | 5.1 | 0.8 | 1.2 | 0.5 | 0.6 |  |  |  |  |  |  |
| C[N+](C)(C)CCCC=C(c1ccc(C(F)(F)F)cc1)c1ccc(C(F)(F)F)cc1 [Compound 10] | 18.8 ± 4.7 µM | 6.4 | 2.7 | 13.4 ± 3.9 µM | 8.9 | 3.8 | 51.4 ± 5.3 µM | 119 ± 8.7 µM | 44 ± 6 µM | 2.7 | 1.2 | 2.3 | 0.3 | 0.7 |  |  |  |  |  |  |
| C[N+](C)(CI)CCCCC=C(c1cccc(C(F)(F)F)c1)c1cccc(C(F)(F)F)c1 [Compound 11] | 18.1 ± 3.7 µM | 5.2 | 1.9 | 21.5 ± 4.5 µM | 4.4 | 1.6 | 33.4 ± 2 µM | 93.5 ± 13.9 µM | 22.1 ± 4 µM | 4.2 | 1.5 | 1.2 | 1.0 | 1.2 |  |  |  |  |  |  |
| C[N+](C)(CCl)CCCCC=C(c1ccc(C(F)(F)F)cc1)c1ccc(C(F)(F)F)cc1 [Compound 12] | 15.1 ± 1.5 µM | 7.3 | 2.7 | 25 ± 4.8 µM | 4.4 | 1.6 | 40.5 ± 9.5 µM | 111 ± 16.7 µM | 48 ± 5.1 µM | 2.3 | 0.8 | 3.2 | 0.5 | 1.7 | High | High | Moderate |  |  |  |
| C[N+](C)(CI)CCCCC=C(c1ccc(C(F)(F)F)cc1)c1ccc(C(F)(F)F)cc1 [Compound 13] | 16 ± 1.5 µM |  | 3.4 | 26.9 ± 4 µM |  | 2.0 | 53.9 ± 3 µM | > 293 µM | 18.5 µM |  | 3.3 | 1.0 | 1.7 | 1.7 |  |  |  | 16.3 ± 2 µM |  |  |
| C[N+](C)(C)CCCCC=C(c1ccc(C(F)(F)F)cc1)c1ccc(C(F)(F)F)cc1 [Compound 14] | 14.5 ± 2.9 µM | 28.9 | 6.4 | 49 ± 11.1 µM | 8.6 | 1.9 | 93.2 ± 13.1 µM | 419 ± 15 µM | 16.3 µM | 22.7 | 5.0 | 1.3 | 2.6 | 3.4 |  |  |  | 18.5 ± 3.6 µM |  |  |
| C[N+](C)(CI)CCCC=C(c1ccccc1)c1ccccc1 [Compound 15] | 158 ± 2.3 µM | 1.6 | 0.2 | 98.2 ± 4.3 µM | 2.6 | 0.3 | 29.3 ± 1.4 µM | 256 ± 14 µM | 124 ± 2.3 µM | 2.1 | 0.2 | 0.8 | 0.8 | 0.6 |  |  |  |  | highly cytotoxic | moderate cytotoxicity |
